Laboratory results: ChEMBL document CHEMBL1201862, “PubChem BioAssay data set” (2004)
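Cultured in 96-well plates, cells were exposed to test compound for 48 hours across five concentrations. At the GI50, growth is halved.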 Calls of active or inactive are those of the source. Cut-off read from the data, not from the text of the source: active = GI50 up to about 1.1 µM and inactive = higher.

Columns and labels:
Assay in all cases: NCI-60 cell line screen, 48 h
HCT-15 = test system: HCT-15
HL-60 = test system: HL-60
KM12 = test system: KM12
M14 = test system: M14
MOLT-4 = test system: MOLT-4
NCI-H23 = test system: NCI-H23
NCI-H522 = test system: NCI-H522
OVCAR-3 = test system: OVCAR-3
RXF 393 = test system: RXF 393
SF-268 = test system: SF-268
SF-539 = test system: SF-539
SK-MEL-5 = test system: SK-MEL-5
SW-620 = test system: SW-620
U-251 = test system: U-251
UACC-257 = test system: UACC-257
OVCAR-4 = test system: OVCAR-4
OVCAR-5 = test system: OVCAR-5
SR = test system: SR

SMILES | GI50 (HCT-15) | GI50 (HL-60) | GI50 (KM12) | GI50 (M14) | GI50 (MOLT-4) | GI50 (NCI-H23) | GI50 (NCI-H522) | GI50 (OVCAR-3) | GI50 (RXF 393) | GI50 (SF-268) | GI50 (SF-539) | GI50 (SK-MEL-5) | GI50 (SW-620) | GI50 (U-251) | GI50 (UACC-257) | GI50 (OVCAR-4) | GI50 (OVCAR-5) | GI50 (SR)
Cc1ccc([N+](=O)[O-])cc1NC(=O)c1cccc([N+](=O)[O-])c1O | 25 µM | 5.01 µM (inactive) | 19.1 µM (inactive) | 16.8 µM (inactive) | 15.6 µM (inactive) | 12.3 µM (inactive) | 3.97 µM (inactive) | 7.24 µM (inactive) | 3.99 µM (inactive) | 14.6 µM (inactive) | 12.3 µM (inactive) | 7.91 µM (inactive) | 34.2 µM (inactive) | 15.9 µM (inactive) | 9.59 µM (inactive) |  |  | 
CCOC(=O)/C(O)=C/c1cc(OC)cc(=O)o1 | > 100 µM | > 100 µM (inactive) | > 100 µM (inactive) | > 100 µM (inactive) | > 100 µM (inactive) | > 100 µM (inactive) | > 100 µM (inactive) | > 100 µM (inactive) | > 100 µM (inactive) | > 100 µM (inactive) | > 100 µM (inactive) | > 100 µM (inactive) | > 100 µM (inactive) | > 100 µM (inactive) | > 100 µM (inactive) | > 100 µM (inactive) | > 100 µM (inactive) | 
O=C(O)C1CCCCN1C(=O)c1ccccc1 (stereo not drawn) | > 100 µM | > 100 µM (inactive) | > 100 µM (inactive) | > 100 µM (inactive) | > 100 µM (inactive) | > 100 µM (inactive) |  | > 100 µM (inactive) | > 100 µM (inactive) | > 100 µM (inactive) | > 100 µM (inactive) | > 100 µM (inactive) | > 100 µM (inactive) | > 100 µM (inactive) | > 100 µM (inactive) | > 100 µM (inactive) | > 100 µM (inactive) | > 100 µM (inactive)
Nc1nnc2nc(CC(=O)/C=C/c3ccccc3)c(=O)[nH]n12 | > 100 µM | > 100 µM (inactive) | > 100 µM (inactive) | > 100 µM (inactive) | > 100 µM (inactive) | > 100 µM (inactive) | > 100 µM (inactive) | > 100 µM (inactive) | > 100 µM (inactive) | > 100 µM (inactive) | > 100 µM (inactive) | > 100 µM (inactive) | > 100 µM (inactive) | > 100 µM (inactive) | > 100 µM (inactive) | > 100 µM (inactive) | > 100 µM (inactive) | 
O=C(O)CCSC(=S)Nc1cccc(F)c1 | 27 µM |  | 42.1 µM (inactive) | 37.1 µM (inactive) | 30 µM (inactive) | 36.1 µM (inactive) |  | 33.7 µM (inactive) | 30.5 µM (inactive) | 45.6 µM (inactive) | 26.1 µM (inactive) | 20 µM (inactive) | > 100 µM (inactive) | 47.3 µM (inactive) | 22.3 µM (inactive) | 92.3 µM (inactive) | > 100 µM (inactive) | 39.2 µM (inactive)
O=C1N2Cc3c4ccc5c3CN3C(=O)N6Cc7c(ccc(c7CN1C6(c1ccccc1)C23c1ccccc1)OCCOCCOc1cc(Br)c(Br)cc1OCCOCCO4)OCCOCCOc1cc(Br)c(Br)cc1OCCOCCO5 (stereo not drawn) | 25.4 µM |  | > 100 µM (inactive) | 21.9 µM (inactive) | > 100 µM (inactive) | > 100 µM (inactive) | > 100 µM (inactive) | > 100 µM (inactive) | > 100 µM (inactive) | > 100 µM (inactive) | 20.1 µM (inactive) | 44.3 µM (inactive) | 15.1 µM (inactive) | > 100 µM (inactive) | > 100 µM (inactive) | 36.5 µM (inactive) |  | > 100 µM (inactive)
